Read-outs that look alike come from different tables or passages of the source.
Assays:
BoNT/A LC [1] = target: T1, BoNT/A LC (Clostridium botulinum, UniProt P0DPI0); experiment: biochemical; assay type: biochemical
Anthrax LF = Anthrax LF (Bacillus anthracis, UniProt P15917); experiment: biochemical
human MMP-1 = human MMP-1 (Homo sapiens, UniProt P03956); assay type: biochemical
human MMP-2 = human MMP-2 (Homo sapiens, UniProt P08253); assay type: biochemical
human MMP-9 = human MMP-9 (Homo sapiens, UniProt P14780); assay type: biochemical
human MMP-9, sequence (P14780 94-707): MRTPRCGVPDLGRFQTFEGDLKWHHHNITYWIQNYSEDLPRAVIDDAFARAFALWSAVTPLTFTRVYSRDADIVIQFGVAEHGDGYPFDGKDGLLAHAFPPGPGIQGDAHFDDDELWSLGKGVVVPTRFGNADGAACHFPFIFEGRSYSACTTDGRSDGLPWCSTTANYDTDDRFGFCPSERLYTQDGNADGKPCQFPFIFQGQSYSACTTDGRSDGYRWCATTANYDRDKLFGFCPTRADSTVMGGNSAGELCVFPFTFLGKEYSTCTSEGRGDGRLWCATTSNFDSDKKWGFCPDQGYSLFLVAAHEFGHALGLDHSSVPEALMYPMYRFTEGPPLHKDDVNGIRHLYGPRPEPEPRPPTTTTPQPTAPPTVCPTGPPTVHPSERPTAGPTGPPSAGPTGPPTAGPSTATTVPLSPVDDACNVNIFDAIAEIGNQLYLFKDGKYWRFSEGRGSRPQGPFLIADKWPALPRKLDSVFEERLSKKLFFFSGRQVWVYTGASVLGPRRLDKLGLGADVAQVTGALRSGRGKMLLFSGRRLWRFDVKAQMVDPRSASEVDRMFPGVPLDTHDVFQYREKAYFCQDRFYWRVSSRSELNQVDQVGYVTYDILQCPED

BoNT/A LC [2] = target: T1, BoNT/A LC; assay type: biochemical
BoNT/A LC [3] = target: T1, BoNT/A LC; assay type: biochemical; remark: listed apart in the source
BoNT/B LC = conditions: cited from earlier work
BoNT/A LC [4] = target: T1, BoNT/A LC; conditions: cited from earlier work

T1 sequence (P0DPI0 2-448 limits assumed): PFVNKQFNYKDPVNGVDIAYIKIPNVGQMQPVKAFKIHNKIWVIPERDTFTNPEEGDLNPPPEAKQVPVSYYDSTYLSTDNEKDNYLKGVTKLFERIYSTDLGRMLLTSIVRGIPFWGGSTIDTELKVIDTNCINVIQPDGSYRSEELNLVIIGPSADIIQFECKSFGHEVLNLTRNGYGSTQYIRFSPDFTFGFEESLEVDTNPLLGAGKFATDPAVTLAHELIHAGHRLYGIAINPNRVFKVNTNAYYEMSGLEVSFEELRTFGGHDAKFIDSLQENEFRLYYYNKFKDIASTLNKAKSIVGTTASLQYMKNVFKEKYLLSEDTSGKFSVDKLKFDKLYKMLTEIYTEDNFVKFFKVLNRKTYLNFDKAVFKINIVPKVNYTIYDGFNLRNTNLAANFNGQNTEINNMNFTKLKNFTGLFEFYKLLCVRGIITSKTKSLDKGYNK
Anthrax LF, sequence (P15917 34-809 limits assumed): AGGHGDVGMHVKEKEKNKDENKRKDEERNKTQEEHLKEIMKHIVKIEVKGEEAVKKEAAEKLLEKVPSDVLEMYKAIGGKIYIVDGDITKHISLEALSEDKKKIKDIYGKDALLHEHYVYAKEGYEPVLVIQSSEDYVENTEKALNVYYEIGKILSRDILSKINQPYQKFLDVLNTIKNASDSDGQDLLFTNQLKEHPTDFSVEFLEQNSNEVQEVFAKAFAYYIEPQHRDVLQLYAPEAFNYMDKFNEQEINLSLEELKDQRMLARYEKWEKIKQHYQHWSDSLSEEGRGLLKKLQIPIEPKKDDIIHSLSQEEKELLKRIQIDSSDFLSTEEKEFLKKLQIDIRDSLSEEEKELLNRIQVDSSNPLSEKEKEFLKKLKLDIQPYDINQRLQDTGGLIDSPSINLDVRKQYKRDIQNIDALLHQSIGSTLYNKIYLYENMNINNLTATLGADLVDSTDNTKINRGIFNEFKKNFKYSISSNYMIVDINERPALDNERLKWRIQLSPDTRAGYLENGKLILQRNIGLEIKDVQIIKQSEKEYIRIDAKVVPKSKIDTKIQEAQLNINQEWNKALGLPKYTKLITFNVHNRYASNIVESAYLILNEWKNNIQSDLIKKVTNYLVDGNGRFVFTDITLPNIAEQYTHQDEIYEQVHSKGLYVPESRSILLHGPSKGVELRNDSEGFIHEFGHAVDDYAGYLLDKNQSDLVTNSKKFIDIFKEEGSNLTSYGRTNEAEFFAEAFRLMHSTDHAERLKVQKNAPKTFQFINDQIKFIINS
human MMP-2, sequence (P08253 110-660): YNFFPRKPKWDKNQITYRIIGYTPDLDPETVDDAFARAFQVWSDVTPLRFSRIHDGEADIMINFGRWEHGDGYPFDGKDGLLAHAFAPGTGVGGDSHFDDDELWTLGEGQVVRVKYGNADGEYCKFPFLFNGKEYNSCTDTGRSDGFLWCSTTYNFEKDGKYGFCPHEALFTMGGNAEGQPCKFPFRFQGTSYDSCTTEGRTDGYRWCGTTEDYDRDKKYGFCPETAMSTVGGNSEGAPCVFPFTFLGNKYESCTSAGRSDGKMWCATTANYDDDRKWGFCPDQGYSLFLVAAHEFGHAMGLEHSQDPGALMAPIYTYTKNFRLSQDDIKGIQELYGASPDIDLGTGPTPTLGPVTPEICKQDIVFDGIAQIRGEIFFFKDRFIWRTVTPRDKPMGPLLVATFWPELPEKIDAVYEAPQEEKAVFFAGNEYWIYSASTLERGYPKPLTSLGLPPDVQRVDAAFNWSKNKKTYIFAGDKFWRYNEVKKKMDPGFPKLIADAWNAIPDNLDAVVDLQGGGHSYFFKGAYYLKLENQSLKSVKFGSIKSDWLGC
human MMP-1, sequence (P03956 100-469): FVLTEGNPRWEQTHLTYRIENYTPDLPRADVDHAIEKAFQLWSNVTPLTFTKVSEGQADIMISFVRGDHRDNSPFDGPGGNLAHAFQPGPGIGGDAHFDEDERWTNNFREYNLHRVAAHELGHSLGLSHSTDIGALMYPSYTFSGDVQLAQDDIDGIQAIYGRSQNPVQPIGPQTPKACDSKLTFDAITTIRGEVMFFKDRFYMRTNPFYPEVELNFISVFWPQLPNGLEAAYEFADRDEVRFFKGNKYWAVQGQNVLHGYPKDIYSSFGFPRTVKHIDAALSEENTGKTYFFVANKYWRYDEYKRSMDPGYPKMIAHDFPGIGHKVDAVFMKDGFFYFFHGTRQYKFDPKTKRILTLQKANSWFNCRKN

For “2-(1-Cyano-2-phenylvinyl)benzimidazole [Compound 8a]”, the “BoNT/A LC inhibitory potency (in words)” value (BoNT/A LC [1]) was “eliminated inhibitory potency”.

Molecule “2-[1-Cyano-2-(2,4-dichloropyrimidin-3-yl)vinyl]-benzimidazole [Compound 10b]” has an IC50 (Anthrax LF; read-out: Anthrax LF IC50) of over 100 µM.

For `COc1ccc(/C=C(\C#N)c2nc3ccccc3[nH]2)cc1I` [Compound 4], the “MMP-1 IC50” value (human MMP-1) was “neither compound inhibited”, the “MMP-2 IC50” value (human MMP-2) was “neither compound inhibited” and the “MMP-9 IC50” value (human MMP-9) was “neither compound inhibited”. The Inactivated by cysteine (BoNT/A LC [2]) was “inactivated”, the Inactivated by glutathione (BoNT/A LC [2]) was “inactivated” and the “Inactivated by zinc chelation” value (BoNT/A LC [2]) was “neither are metal chelating agents”. The “manner of BoNT/A LC inhibition” value (BoNT/A LC [3]) was “time-dependent”, the “BoNT/B LC FRET IC50” value (BoNT/B LC) was “neither 4 nor 5 inhibited” and the “kinetics with respect to the substrate” value (BoNT/A LC [4]) was “noncompetitive”.

In the case of `N#C/C(=C\c1ccc(-c2cccs2)s1)c1nc2ccccc2[nH]1` [Compound 5, 3-(2,2'-Bithiophen-5-yl)-2-(1H-benzo[d]imidazol-2-yl)acrylonitrile], the “MMP-1 IC50” value (human MMP-1) is reported as “neither compound inhibited”, the “MMP-2 IC50” value (human MMP-2) is reported as “neither compound inhibited” and the “MMP-9 IC50” value (human MMP-9) is reported as “neither compound inhibited”. The Inactivated by cysteine (BoNT/A LC [2]) was “no significant, non-specific reactivity”, the Inactivated by glutathione (BoNT/A LC [2]) was “no significant, non-specific reactivity” and the “Inactivated by zinc chelation” value (BoNT/A LC [2]) was “neither are metal chelating agents”. For the same molecule, the “manner of BoNT/A LC inhibition” value (BoNT/A LC [3]) was “time-dependent”, the “BoNT/B LC FRET IC50” value (BoNT/B LC) was “neither 4 nor 5 inhibited” and the “kinetics with respect to the substrate” value (BoNT/A LC [4]) was “noncompetitive”.

With `COc1ccc(/C=C(\C#N)c2nc3ccccc3[nH]2)cc1OC` [Compound 8f, 2-(1H-Benzo[d]imidazol-2-yl)-3-(3,4-dimethoxyphenyl)acrylonitrile] the “BoNT/A LC inhibitory potency (in words)” value (BoNT/A LC [1]) was “eliminated inhibitory potency”.

With `COc1cc(/C=C(\C#N)c2nc3ccccc3[nH]2)cc(Cl)c1O` [Compound 8g, 2-[1-Cyano-2-(3-chloro-5-methoxy-4-hydroxyphenyl)vinyl]benzimidazole] the “BoNT/A LC inhibitory potency (in words)” value (BoNT/A LC [1]) was “significantly decreased or diminished activity”.

In the case of `COc1cc(C=C(C#N)c2nc3ccccc3[nH]2)cc(Br)c1O` [Compound 8h, 2-[1-Cyano-2-(3-bromo-5-methoxy-4-hydroxyphenyl)vinyl]benzimidazole], the “BoNT/A LC inhibitory potency (in words)” value (BoNT/A LC [1]) is reported as “significantly decreased or diminished activity”, the IC50 (BoNT/A LC [1]) is reported as 94 µM and the IC50 (Anthrax LF) is reported as over 100 µM.

With `N#C/C(=C\c1ccc(-c2ccccc2)cc1)c1nc2ccccc2[nH]1` [Compound 8i, 2-(1H-Benzo[d]imidazol-2-yl)-3-(biphenyl-4-yl)acrylonitrile] the “BoNT/A LC inhibitory potency (in words)” value (BoNT/A LC [1]) was “significantly lower potency with respect to 4”.

With `N#CC(=Cc1ccc(-n2ccnc2)cc1)c1nc2ccccc2[nH]1` [Compound 8j, 3-(4-(1H-Imidazol-1-yl)phenyl)-2-(1H-benzo[d]imidazol-2-yl)acrylonitrile] the “BoNT/A LC inhibitory potency (in words)” value (BoNT/A LC [1]) was “significantly lower potency with respect to 4”, the IC50 (BoNT/A LC [1]) was 73 µM and the IC50 (Anthrax LF) was over 100 µM.

With `COc1cc(C=C(C#N)c2nc3ccccc3[nH]2)cc(O)c1OC` [Compound 8k, 2-(1H-Benzo[d]imidazol-2-yl)-3-(3-hydroxy-4,5-dimethoxyphenyl)acrylonitrile] the “BoNT/A LC inhibitory potency (in words)” value (BoNT/A LC [1]) was “significantly decreased or diminished activity”, the IC50 (BoNT/A LC [1]) was over 100 µM and the IC50 (Anthrax LF) was over 100 µM.

With `Cc1ccc(/C=C(\C#N)c2nc3ccccc3[nH]2)s1` [Compound 12a, 2-(1H-Benzo[d]imidazol-2-yl)-3-(5-methylthiophen-2-yl)acrylonitrile] the “BoNT/A LC inhibitory potency (in words)” value (BoNT/A LC [1]) was “no BoNT/A LC inhibition”.

For `Cc1cc(/C=C(\C#N)c2nc3ccccc3[nH]2)sc1C` [Compound 12b, 2-(1H-Benzo[d]imidazol-2-yl)-3-(4,5-dimethylthiophen-2-yl)acrylonitrile], the “BoNT/A LC inhibitory potency (in words)” value (BoNT/A LC [1]) was “no BoNT/A LC inhibition”.

With `N#C/C(=C\c1cccs1)c1nc2ccccc2[nH]1` [Compound 12c, 2-(1H-Benzo[d]imidazol-2-yl)-3-(thiophen-2-yl)acrylonitrile] the “BoNT/A LC inhibitory potency (in words)” value (BoNT/A LC [1]) was “no BoNT/A LC inhibition”.

In the case of `N#C/C(=C\c1ccc(-c2ccco2)s1)c1nc2ccccc2[nH]1` [Compound 12d, 2-(1H-Benzo[d]imidazol-2-yl)-3-(5-(furan-2-yl)thiophen-2-yl)acrylonitrile], the “BoNT/A LC inhibitory potency (in words)” value (BoNT/A LC [1]) is reported as “approximately two-fold less potent than 5”.

With `N#C/C(=C\c1ccc(-c2cccs2)o1)c1nc2ccccc2[nH]1` [Compound 12e, 2-(1H-Benzo[d]imidazol-2-yl)-3-(5-(thiophen-2-yl)furan-2-yl)acrylonitrile hemiacetate] the “BoNT/A LC inhibitory potency (in words)” value (BoNT/A LC [1]) was “no activity was observed”.

With `N#C/C(=C\c1ccc(-c2cccs2)s1)c1cc2ccccc2[nH]1` [Compound 14a, 3-(2,2'-Bithiophen-5-yl)-2-(1H-indol-2-yl)acrylonitrile] the “BoNT/A LC inhibitory potency (in words)” value (BoNT/A LC [1]) was “eliminated inhibitory potency”.

With `N#C/C(=C\c1ccc(-c2cccs2)s1)c1nc2ccccc2s1` [Compound 14b, 3-(2,2'-Bithiophen-5-yl)-2-(benzo[d]thiazol-2-yl)acrylonitrile] the “BoNT/A LC inhibitory potency (in words)” value (BoNT/A LC [1]) was “eliminated inhibitory potency”.

For `N#C/C(=C\c1ccc(-c2cccs2)s1)c1nc2ccccc2o1` [Compound 14c, 3-(2,2'-Bithiophen-5-yl)-2-(benzo[d]oxazol-2-yl)acrylonitrile], the “BoNT/A LC inhibitory potency (in words)” value (BoNT/A LC [1]) was “eliminated inhibitory potency”.

For `N#C/C(=C\c1ccc(-c2cccs2)s1)c1ccc2ccccc2n1` [Compound 14d, 3-(2,2'-Bithiophen-5-yl)-2-(quinolin-2-yl)acrylonitrile], the “BoNT/A LC inhibitory potency (in words)” value (BoNT/A LC [1]) was “eliminated inhibitory potency”.

For `Cn1c(/C(C#N)=C/c2ccc(-c3cccs3)s2)[n+](C)c2ccccc21.[I-]` [Compound 15, 2-(2-(2,2'-Bithiophen-5-yl)-1-cyanovinyl)-1,3-dimethyl-1H-benzo[d]imidazol-3-ium iodide], the “BoNT/A LC inhibitory potency (in words)” value (BoNT/A LC [1]) was “detrimental to potency”.
